For one assay, the target named is T1, HSP90a protein (Homo sapiens, UniProt P07900).
T1 construct: purchased BPS Bioscience 50298
Kind of assay: HSP90α-binding fluorescent polarization (FP) assay, BODIPY-labeled RNK04010 probe. To be noted: FP competition with RNK04010 (BODIPY-labeled), 5 nM, 300 min at 25° C. The method in brief: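 Compound dilutions (20 μM to 5.2 nM, 2.5-fold) are combined with 5 nM final labeled probe, and HSP90a N-terminal protein is added last. Plates are shaken briefly and held at 25° C for 120 min (FITC-geldanamycin) or 300 min (BODIPY-RNK04010), then FP is measured.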

Assay [1] concerns NCI-H358 human non-small cell lung cancer. Kind of assay: NCI-H358 CCK-8 proliferation assay. To be noted: NCI-H358 cells, 72 hr. It is filed as cell-based. The procedure:
The following cancer cell lines were employed: BT-474 human breast carcinoma (ATCC, #HTB-20); MIA PaCa-2 human pancreatic carcinoma [2 copies KRAS(G12C)](ATCC, #CRL-1420); NCI-H23 human non-small cell lung cancer [1 copy KRAS(G12C)](ATCC, #CRL-5800); NCI-H358 human non-small cell lung cancer [1 copy KRAS(G12C)](ATCC, #CRL-5807); LU65A human lung carcinoma (Pharmaron, Beijing, China). Cell lines were cultured essentially according to ATCC and Pharmaron recommendations.
Cancer Cell Line Proliferation (CCK-8) Assays
3-fold serial dilutions of each test compound were prepared ranging from 20 μM to 1.02 nM.
% Inhibition=100−(D−B)/(S−B)*100%. • S: Absorbance of cells treated with DMSO • D: Absorbance of compound-treated cells • B: Absorbance of medium with DMSO without cells
On the technique in general: Tetrazolium dyes change colour on reduction, which living cells bring about.

The next assay addresses KRAS(G12C) (Homo sapiens, UniProt P01116, G12C). Kind of assay: KRAS(G12C)/SOS1 homogeneous time-resolved fluorescence (HTRF) assay. Also noted: purchased Cisbio 63ADK000CB16PEG. To be noted: absence of GTP, 4° C. for 3 hr, read-out: KRAS (G12C) binding. Put shortly:
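Three-hour incubation at 4 °C of 3-fold compound dilutions (lowest 1.02 nM) with KRAS(G12C), SOS1 and detection reagents, GTP absent. Disruption of the KRAS(G12C)/SOS1 complex detected by time-resolved fluorescence.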
In general terms: Time-resolved FRET reads energy transfer from a long-lived donor to a nearby acceptor.

In assay [2] the test system is MIA PaCa-2 human pancreatic carcinoma. Kind of assay: MIA PaCa-2 CCK-8 proliferation assay. To be noted: Homo sapiens, MIA PaCa-2, 72 h, MIA PaCa-2 cells. Format: cell-based. Put shortly: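 CCK-8 absorbance readout; % inhibition = 100 − (compound − blank)/(DMSO − blank) × 100, blank = medium + DMSO, no cells. Dose range 20 μM down to 1.02 nM, 3-fold steps. KRAS(G12C) copy number: MIA PaCa-2 2; NCI-H358 1; NCI-H23 1.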

KRAS(G12C), sequence (P01116 1-188 isoform P01116-2 G12C): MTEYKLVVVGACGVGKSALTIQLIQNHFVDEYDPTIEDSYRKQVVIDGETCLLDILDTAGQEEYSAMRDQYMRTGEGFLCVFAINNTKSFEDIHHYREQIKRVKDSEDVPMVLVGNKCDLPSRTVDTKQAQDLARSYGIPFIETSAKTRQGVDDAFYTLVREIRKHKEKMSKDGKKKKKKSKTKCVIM

As to `CCC(=O)N1CCN(c2nc(NCCC(=O)N3CCN(Cc4ccc5c(c4)CN(C(=O)c4cc(CC)c(O)cc4O)C5)CC3)nc3c2CCN(c2cc(O)cc4ccccc24)C3)CC1` [Compound 66, 1-(4-((2-(5-ethyl-2,4-dihydroxybenzoyl)isoindolin-5-yl)methyl)piperazin-1-yl)-3-((7-(3-hydroxynaphthalen-1-yl)-4-(4-propionylpiperazin-1-yl)-5,6,7,8-tetrahydropyrido[3,4-d]pyrimidin-2-yl)amino)propan-1-one, trifluoroacetic acid], the IC50 on HSP90a protein is over 1000 nM. In assay [1], this compound had an EC50 of over 1000 nM.
For `C=CC(=O)N1CCN(C2CN(c3cc(O)cc4ccccc34)Cc3nc(NCCC(=O)NCCOCCOCCOc4ccc(-n5c(O)nnc5-c5cc(C(C)C)c(O)cc5O)cc4)ncc32)CC1` (stereo not shown) [Compound 9, 3-((5-(4-acryloylpiperazin-1-yl)-7-(3-hydroxynaphthalen-1-yl)-5,6,7,8-tetrahydropyrido[3,4-d]pyrimidin-2-yl)amino)-N-(2-(2-(2-(4-(3-(2,4-dihydroxy-5-isopropylphenyl)-5-hydroxy-4H-1,2,4-triazol-4-yl)phenoxy)ethoxy)ethoxy)ethyl)propanamide, trifluoroacetic acid], the IC50 on HSP90a protein fell in the range of 100 to 1000 nM. The 50% effective concentration (EC50) in assay [1] is over 1000 nM.
For the compound `C=CC(=O)N1CCN(c2nc(NCCC(=O)NCC3CCN(C(=O)C4CCN(Cc5ccc(-n6c(O)nnc6-c6cc(CC)c(O)cc6O)cc5)CC4)CC3)nc3c2CCN(c2cccc4cccc(Cl)c24)C3)C[C@H]1CC#N` [Compound 104, (R)-3-((4-(4-acryloyl-3-(cyanomethyl)piperazin-1-yl)-7-(8-chloronaphthalen-1-yl)-5,6,7,8-tetrahydropyrido[3,4-d]pyrimidin-2-yl)amino)-N-((1-(1-(4-(3-(5-ethyl-2,4-dihydroxyphenyl)-5-hydroxy-4H-1,2,4-triazol-4-yl)benzyl)piperidine-4-carbonyl)piperidin-4-yl)methyl)propanamide, trifluoroacetic acid], at HSP90a protein, the IC50 is under 100 nM. The compound further returned an EC50 in assay [1] of over 1000 nM.
Take `C=C(F)C(=O)N1CCN(c2nc(OC[C@@H]3CCN(C(=O)c4ccc(Nc5cc(-n6nc(C(F)(F)F)c7c6CC(C)(C)CC7=O)ccc5C(N)=O)cc4)C3)nc3c2CCN(c2cccc4cccc(Cl)c24)C3)C[C@@H]1CC#N` [Compound 163, 2-((4-((R)-3-(((7-(8-chloronaphthalen-1-yl)-4-((S)-3-(cyanomethyl)-4-(2-fluoroacryloyl)piperazin-1-yl)-5,6,7,8-tetrahydropyrido[3,4-d]pyrimidin-2-yl)oxy)methyl)pyrrolidine-1-carbonyl)phenyl)amino)-4-(6,6-dimethyl-4-oxo-3-(trifluoromethyl)-4,5,6,7-tetrahydro-1H-indazol-1-yl)benzamide]: at HSP90a protein, the IC50 was over 1000 nM. The EC50 in assay [1] is over 1000 nM.
In turn, `C=CC(=O)N1CCN(c2nc(NCCC(=O)NCC3CCN(C(=O)C4CCN(Cc5ccc(-n6c(O)nnc6-c6cc(CC)c(O)cc6O)cc5)CC4)CC3)nc3c2CCN(c2cccc4ccccc24)C3)C[C@H]1CC#N` [Compound 103, (R)-3-((4-(4-acryloyl-3-(cyanomethyl)piperazin-1-yl)-7-(naphthalen-1-yl)-5,6,7,8-tetrahydropyrido[3,4-d]pyrimidin-2-yl)amino)-N-((1-(1-(4-(3-(5-ethyl-2,4-dihydroxyphenyl)-5-hydroxy-4H-1,2,4-triazol-4-yl)benzyl)piperidine-4-carbonyl)piperidin-4-yl)methyl)propanamide, trifluoroacetic acid] returned an IC50 at HSP90a protein of under 100 nM. The compound also gave an EC50 in assay [1] of over 1000 nM.
Turning to `C=CC(=O)N1CCN(c2nc(OC[C@@H]3C[C@H](N4CCC5(CCN(C(=O)C6CCN(Cc7ccc(-n8c(C(=O)NCC(F)(F)F)nnc8-c8cc(C(C)C)c(O)cc8O)cc7)CC6)CC5)CC4)CN3C)nc3c2CCN(c2cccc4cccc(Cl)c24)C3)C[C@@H]1CC#N` [Compound 311, 4-{4-[(4-{9-[(3S,5S)-5-({[7-(8-chloronaphthalen-1-yl)-4-[(3S)-3-(cyanomethyl)-4-(prop-2-enoyl)piperazin-1-yl]-5H,6H,8H-pyrido[3,4-d]pyrimidin-2-yl]oxy}methyl)-1-methylpyrrolidin-3-yl]-3,9-diazaspiro[5.5]undecane-3-carbonyl}piperidin-1-yl)methyl]phenyl}-5-(2,4-dihydroxy-5-isopropylphenyl)-N-(2,2,2-trifluoroethyl)-1,2,4-triazole-3-carboxamide], the IC50 on KRAS(G12C) and at HSP90a protein was under 100 nM each time. This compound also registered an EC50 in assay [2] of under 100 nM.
With `C=CC(=O)N1CCN(c2nc(OC[C@@H]3C[C@H](N4CCC(C(=O)N5CCN(Cc6ccc(-n7c(C(=O)NCCN8CCN(S(C)(=O)=O)CC8)nnc7-c7cc(C(C)C)c(O)cc7O)cc6)CC5)CC4)CN3C)nc3c2CCN(c2cccc4cccc(Cl)c24)C3)C[C@@H]1CC#N` [Compound 327, 4-{4-[(4-{1-[(3S,5S)-5-({[7-(8-chloronaphthalen-1-yl)-4-[(3S)-3-(cyanomethyl)-4-(prop-2-enoyl)piperazin-1-yl]-5H,6H,8H-pyrido[3,4-d]pyrimidin-2-yl]oxy}methyl)-1-methylpyrrolidin-3-yl]piperidine-4-carbonyl}piperazin-1-yl)methyl]phenyl}-5-(2,4-dihydroxy-5-isopropylphenyl)-N-[2-(4-methanesulfonylpiperazin-1-yl)ethyl]-1,2,4-triazole-3-carboxamide], the IC50 on KRAS(G12C) and at HSP90a protein was under 100 nM in each case. This compound displayed a concentration for a half-maximal effect (EC50) in assay [2] of 100 to 1000 nM.
Regarding `C=CC(=O)N1CCN(c2nc(OC[C@@H]3C[C@H](NC(=O)C4CCN(C(=O)C5CCN(Cc6ccc(-n7c(C(=O)NCC(F)(F)F)nnc7-c7cc(C(C)C)c(O)cc7O)cc6)CC5)CC4)CN3C)nc3c2CCN(c2cccc4cccc(Cl)c24)C3)C[C@@H]1CC#N` [Compound 307, N-[(3S,5S)-5-({[7-(8-chloronaphthalen-1-yl)-4-[(3S)-3-(cyanomethyl)-4-(prop-2-enoyl)piperazin-1-yl]-5H,6H,8H-pyrido[3,4-d]pyrimidin-2-yl]oxy}methyl)-1-methylpyrrolidin-3-yl]-1-[1-({4-[3-(2,4-dihydroxy-5-isopropylphenyl)-5-[(2,2,2-tri-fluoroethyl)carbamoyl]-1,2,4-triazol-4-yl]phenyl}methyl)piperidine-4-carbonyl]piperidine-4-carboxamide], the IC50 at KRAS(G12C) and at HSP90a protein was under 100 nM in each case. In assay [2], this compound showed an EC50 of under 100 nM.
Turning to `C=CC(=O)N1CCN(c2nc(OC[C@@H]3C[C@@H](NC(=O)C4CCN(Cc5ccc(-n6c(O)nnc6-c6cc(C(C)C)c(O)cc6O)cc5)CC4)CN3C)nc3c2CCN(c2cccc4cccc(Cl)c24)C3)C[C@@H]1CC#N` [Compound 205, N-((3R,5S)-5-(((4-((S)-4-acryloyl-3-(cyanomethyl)piperazin-1-yl)-7-(8-chloronaphthalen-1-yl)-5,6,7,8-tetrahydropyrido[3,4-d]pyrimidin-2-yl)oxy)methyl)-1-methylpyrrolidin-3-yl)-1-(4-(3-(2,4-dihydroxy-5-isopropylphenyl)-5-hydroxy-4H-1,2,4-triazol-4-yl)benzyl)piperidine-4-carboxamide], the IC50 on KRAS(G12C) was 100 to 1000 nM; at HSP90a protein, under 100 nM. Also, the EC50 in assay [2] lay within 100 to 1000 nM.
As to `C=CC(=O)N1CCN(c2nc(OC[C@@H]3C[C@@H](OC(=O)N4CCN(Cc5ccc(-n6c(O)nnc6-c6cc(CC)c(O)cc6O)cc5)CC4)CN3C)nc3c2CCN(c2cccc4cccc(Cl)c24)C3)C[C@@H]1CC#N` [Compound 294, (3R,5S)-5-(((4-((S)-4-acryloyl-3-(cyanomethyl)piperazin-1-yl)-7-(8-chloronaphthalen-1-yl)-5,6,7,8-tetrahydropyrido[3,4-d]pyrimidin-2-yl)oxy)methyl)-1-methylpyrrolidin-3-yl 4-(4-(3-(5-ethyl-2,4-dihydroxyphenyl)-5-hydroxy-4H-1,2,4-triazol-4-yl)benzyl)piperazine-1-carboxylate], the IC50 on KRAS(G12C) was over 1000 nM; on HSP90a protein it was under 100 nM. This compound showed an EC50 in assay [2] of over 1000 nM.
As for `C=CC(=O)N1CCN(c2nc(OC[C@@H]3CC[C@H](COC(=O)NCc4ccc(-n5c(O)nnc5-c5cc(CC)c(O)cc5O)cc4)N3C)nc3c2CCN(c2cccc4cccc(Cl)c24)C3)C[C@@H]1CC#N` [Compound 296, ((2R,5S)-5-(((4-((S)-4-acryloyl-3-(cyanomethyl)piperazin-1-yl)-7-(8-chloronaphthalen-1-yl)-5,6,7,8-tetrahydropyrido[3,4-d]pyrimidin-2-yl)oxy)methyl)-1-methylpyrrolidin-2-yl)methyl4-(3-(5-ethyl-2,4-dihydroxyphenyl)-5-hydroxy-4H-1,2,4-triazol-4-yl)benzylcarbamate], the IC50 at KRAS(G12C) was 100 to 1000 nM; at HSP90a protein, under 100 nM. The same compound registered an EC50 in assay [2] of over 1000 nM.

By EC50 is commonly meant the midpoint of the concentration-response curve.

Values taken from patent US20230391772A1, “METHODS AND COMPOSITIONS FOR TARGETED PROTEIN DEGRADATION” (Ranok Therapeutics (Hangzhou) Co. Ltd., priority 2020, published 2023).
